Laboratory results from patent US11566007B2, “Ras inhibitors” (Revolution Medicines, Inc., priority 2019, dated 2023).
Like-named read-outs stand apart in the source and are kept apart here.

Experiments:
KRAS G12D = KRAS G12D (Homo sapiens (Human), UniProt P01116+P62937, G12D); experiment: Ras-Raf (BRAF RBD) disruption / FRET / MOA assay, KRAS G12D; format: biochemical; conditions: class symbols
How it was run: (§1)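 A 10-point, 3-fold dilution series topping at 30 μM final was incubated 3 h at 25° C with the Ras/cyclophilin A/BRAF RBD mixture.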

K-Ras G12C = K-Ras G12C (Homo sapiens (Human), UniProt P01116+P62937, G12C); experiment: Ras-Raf (BRAF RBD) disruption / FRET / MOA assay, KRAS G12C; format: biochemical; conditions: KRAS G12C, Ras-Raf disruption/FRET/MOA assay
K-Ras G12C, sequence (P01116-2 other isoform, or with tags, fused parts or gaps G12C): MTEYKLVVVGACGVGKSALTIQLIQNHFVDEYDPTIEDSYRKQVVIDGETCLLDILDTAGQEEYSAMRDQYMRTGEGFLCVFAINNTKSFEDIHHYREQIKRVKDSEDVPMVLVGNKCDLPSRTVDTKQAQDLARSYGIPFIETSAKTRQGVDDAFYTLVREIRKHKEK
K-Ras G12C, sequence (P62937 whole entry): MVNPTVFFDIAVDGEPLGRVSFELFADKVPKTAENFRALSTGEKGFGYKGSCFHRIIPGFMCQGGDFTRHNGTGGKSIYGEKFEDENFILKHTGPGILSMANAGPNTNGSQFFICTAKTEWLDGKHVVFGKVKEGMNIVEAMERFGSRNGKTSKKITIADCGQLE
How it was run: as §1

NRAS G12C = NRAS G12C (Homo sapiens (Human), UniProt P01111+P62937, G12C); experiment: Ras-Raf (BRAF RBD) disruption / FRET / MOA assay, NRAS G12C; format: biochemical
NRAS G12C, sequence (P01111 whole entry G12C): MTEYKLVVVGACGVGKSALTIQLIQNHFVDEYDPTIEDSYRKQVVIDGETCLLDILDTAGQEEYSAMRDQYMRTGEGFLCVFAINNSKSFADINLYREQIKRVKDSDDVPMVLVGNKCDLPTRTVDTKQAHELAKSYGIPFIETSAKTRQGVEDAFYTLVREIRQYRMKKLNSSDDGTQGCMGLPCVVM
NRAS G12C, sequence (P62937 whole entry): as the sequence (P62937 whole entry) above
How it was run: as §1

NRAS Q61R = NRAS Q61R (Homo sapiens (Human), UniProt P01111+P62937, Q61R); experiment: Ras-Raf (BRAF RBD) disruption / FRET / MOA assay, NRAS Q61R; format: biochemical; conditions: NRAS Q61R; Ras-Raf disruption/FRET/MOA assay; read-out: IC50* NRAS Q61R FRET data
NRAS Q61R, sequence (P01111 whole entry Q61R): as the sequence (P01111 whole entry G12C) above, with C12G, Q61R counted along it
NRAS Q61R, sequence (P62937 whole entry): as the sequence (P62937 whole entry) above
How it was run: (§2)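 Compounds (30 μM top final, 10-point 3-fold dilutions) incubated 3 h at 25° C with nucleotide-loaded Ras, cyclophilin A and BRAF RBD. Detection with 10 nM anti-His Eu-W1024 and 50 nM anti-GST allophycocyanin over another 1.5 h. Lowered TR-FRET ratio relative to DMSO wells gives IC50.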

NRAS Q61K = NRAS Q61K (Homo sapiens (Human), UniProt P01111+P62937, Q61K); experiment: Ras-Raf (BRAF RBD) disruption / FRET / MOA assay, NRAS Q61K; format: biochemical; conditions: NRAS Q61K; Ras-Raf disruption/FRET/MOA assay; read-out: IC50* NRAS Q61K FRET data
NRAS Q61K, sequence (P01111 whole entry Q61K): as the sequence (P01111 whole entry G12C) above, with C12G, Q61K counted along it
NRAS Q61K, sequence (P62937 whole entry): as the sequence (P62937 whole entry) above
How it was run: as §2

KRAS G12S = KRAS G12S (Homo sapiens (Human), UniProt P01116+P62937, G12S); experiment: Ras-Raf (BRAF RBD) disruption / FRET / MOA assay, KRAS G12S; format: biochemical; conditions: class symbols
KRAS G12S, sequence (P01116-2 other isoform, or with tags, fused parts or gaps G12S): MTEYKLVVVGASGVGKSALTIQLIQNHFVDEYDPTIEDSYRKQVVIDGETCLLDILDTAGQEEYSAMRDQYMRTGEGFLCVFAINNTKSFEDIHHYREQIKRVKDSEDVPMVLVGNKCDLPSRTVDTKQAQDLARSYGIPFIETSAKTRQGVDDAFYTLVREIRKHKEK
KRAS G12S, sequence (P62937 whole entry): as the sequence (P62937 whole entry) above
How it was run: as §1

NCI-H358 (K-Ras G12C) = experiment: CellTiter-Glo cell viability assay, NCI-H358; format: cell-based, human; conditions: Homo sapiens, NCI-H358, 120 h, class symbols
How it was run: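 Cells seeded, compound added directly, 5-day exposure. Plates to RT ~30 min, CellTiter-Glo luminescence read. Normalized to DMSO avg (x100); 4-parameter logistic fit.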

[1] = Ras-Raf disruption/FRET/MOA assay, read-out: KRAS G12D FRET data IC50
[2] = read-out: IC50* KRAS G12C FRET data
[3] = read-out: IC50* NRAS G12C FRET data
[4] = Ras-Raf disruption/FRET/MOA assay, read-out: KRAS G12S FRET data IC50
[5] = NCI-H358, 5-day treatment, read-out: Additional H358 Cell Viability assay data (K-Ras G12C, IC50)
[6] = read-out: Additional H358 Cell Viability assay data (K-Ras G12C, IC50, uM), NCI-H358, 5-day treatment

KRAS G12D, sequence (P01116-2 other isoform, or with tags, fused parts or gaps G12D): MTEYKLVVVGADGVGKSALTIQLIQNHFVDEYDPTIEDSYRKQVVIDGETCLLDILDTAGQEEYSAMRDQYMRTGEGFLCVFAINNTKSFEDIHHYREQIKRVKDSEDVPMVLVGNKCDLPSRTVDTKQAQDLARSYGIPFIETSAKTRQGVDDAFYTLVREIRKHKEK
KRAS G12D, sequence (P62937 whole entry): as the sequence (P62937 whole entry) above

Row | Structure (SMILES) | IC50 (KRAS G12D; [1]) | IC50 (K-Ras G12C; [2]) | IC50 (NRAS G12C; [3]) | IC50 (NRAS Q61R) | IC50 (NRAS Q61K) | IC50 (KRAS G12S; [4]) | IC50 (NCI-H358 (K-Ras G12C); [5]) | IC50 (KRAS G12D; KRAS G12D FRET data IC50, Ras-Raf disruption/FRET/MOA assay) | IC50 (K-Ras G12C; IC50* KRAS G12C FRET data) | IC50 (NRAS G12C; IC50* NRAS G12C FRET data) | IC50 (KRAS G12S; KRAS G12S FRET data IC50, Ras-Raf disruption/FRET/MOA assay) | IC50 (NCI-H358 (K-Ras G12C); [6])
1 | C=CC(=O)N1C[C@@H](C)N(C(=O)N(C)[C@H](C(=O)N[C@H]2Cc3nc(cs3)-c3ccc4c(c3)c(c(-c3cccnc3[C@H](C)OC)n4CC)CC(C)(C)COC(=O)[C@@H]3CCCN(N3)C2=O)C(C)C)[C@H](C)C1 (atropisomer, axis not shown) [Example A388] | 10 to 100 nM | < 10 nM | < 10 nM | < 10 nM | < 10 nM | 10 to 100 nM | < 0.01 µM | – | – | – | – | –
2 | C=CC(=O)N1C[C@@H]2CN(C(=O)N(C)[C@H](C(=O)N[C@H]3Cc4nc(cs4)-c4ccc5c(c4)c(c(-c4cccnc4[C@H](C)OC)n5CC)CC(C)(C)COC(=O)[C@@H]4CCCN(N4)C3=O)C(C)C)C[C@@H]2C1 (atropisomer, axis not shown) [Example A389] | 100 to 1000 nM | 10 to 100 nM | 10 to 100 nM | 10 to 100 nM | 10 to 100 nM | 10 to 100 nM | < 0.01 µM | – | – | – | – | –
3 | C=CC(=O)N(C)[C@@H]1CCN(C(=O)N(C)[C@H](C(=O)N[C@H]2Cc3nc(cs3)-c3ccc4c(c3)c(c(-c3cccnc3[C@H](C)OC)n4CC)CC(C)(C)COC(=O)[C@@H]3CCCN(N3)C2=O)C(C)C)C1 (atropisomer, axis not shown) [Example A416] | 1000 to 10000 nM | 10 to 100 nM | 100 to 1000 nM | 100 to 1000 nM | 10 to 100 nM | 100 to 1000 nM | < 0.01 µM | – | – | – | – | –
4 | C=CC(=O)N1CC[C@H](C(=O)N(C)[C@H](C(=O)N[C@H]2Cc3coc(n3)-c3ccc4c(c3)c(c(-c3cccnc3[C@H](C)OC)n4CC)CC(C)(C)COC(=O)[C@@H]3CCCN(N3)C2=O)C(C)C)C1 (atropisomer, axis not shown) [Example A468] | > 10000 nM | 100 to 1000 nM | 100 to 1000 nM | > 10000 nM | 1000 to 10000 nM | 1000 to 10000 nM | 0.01 to 0.1 µM | – | – | – | – | –
5 | C=CC(=O)N1CCN(C(=O)N(C)[C@H](C(=O)N[C@H]2Cc3nc(cs3)-c3ccc4c(c3)c(c(-c3cccnc3[C@H](C)OC)n4CC)CC(C)(C)COC(=O)[C@@H]3CCCN(N3)C2=O)C(C)C)CC1 (atropisomer, axis not shown) [Example A491] | 100 to 1000 nM | 10 to 100 nM | 10 to 100 nM | 10 to 100 nM | 10 to 100 nM | 10 to 100 nM | < 0.01 µM | – | – | – | – | –
6 | C=CC(=O)N1CC[C@H](C(=O)N(C)[C@H](C(=O)N[C@H]2Cc3nc(cs3)-c3ccc4c(c3)c(c(-c3cccnc3[C@H](C)OC)n4CC(F)(F)F)CC(C)(C)COC(=O)[C@@H]3CCCN(N3)C2=O)C(C)C)C1 (atropisomer, axis not shown) [Example A502] | 1000 to 10000 nM | 100 to 1000 nM | 100 to 1000 nM | 100 to 1000 nM | 100 to 1000 nM | 100 to 1000 nM | < 0.01 µM | – | – | – | – | –
7 | C=CC(=O)N1CC[C@H](C(=O)N(C)[C@H](C(=O)N[C@H]2Cc3cc(CF)cc(c3)-c3ccc4c(c3)c(c(-c3cccnc3[C@H](C)OC)n4CC)CC(C)(C)COC(=O)[C@@H]3CCCN(N3)C2=O)C(C)C)C1 (atropisomer, axis not shown) [Example A503] | 1000 to 10000 nM | 10 to 100 nM | 10 to 100 nM | 1000 to 10000 nM | 1000 to 10000 nM | 1000 to 10000 nM | < 0.01 µM | – | – | – | – | –
8 | C=CC(=O)N1CC[C@H](C(=O)N(C)[C@H](C(=O)N[C@H]2Cc3cccc(c3)-c3ccc4c(c3)c(c(-c3cc(CN(C)C)cnc3[C@H](C)OC)n4CC)CC(C)(C)COC(=O)[C@@H]3CCCN(N3)C2=O)C(C)C)C1 (atropisomer, axis not shown) [Example A522] | > 10000 nM | 100 to 1000 nM | 100 to 1000 nM | 1000 to 10000 nM | 1000 to 10000 nM | 1000 to 10000 nM | < 0.01 µM | – | – | – | – | –
9 | C=CC(=O)N1CCO[C@H]2CN(C(=O)N(C)[C@H](C(=O)N[C@H]3Cc4cc(C(F)F)cc(n4)-c4ccc5c(c4)c(c(-c4cccnc4[C@H](C)OC)n5CC(F)(F)F)CC(C)(C)COC(=O)[C@@H]4CCCN(N4)C3=O)C(C)C)C[C@H]21 (atropisomer, axis not shown) [Example A540] | – | – | – | 1000 to 10000 nM | 1000 to 10000 nM | – | – | > 10000 nM | 100 to 1000 nM | 100 to 1000 nM | 1000 to 10000 nM | < 0.01 µM
10 | C=CC(=O)N1CCO[C@@H]2CN(C(=O)N(C)[C@H](C(=O)N[C@H]3Cc4nc(cs4)-c4ccc5c(c4)c(c(-c4cccnc4[C@H](C)OC)n5CC)CC(C)(C)COC(=O)[C@@H]4CCCN(N4)C3=O)C(C)C)C[C@H]21 (atropisomer, axis not shown) [Example A543] | 1000 to 10000 nM | < 10 nM | < 10 nM | 100 to 1000 nM | 10 to 100 nM | 100 to 1000 nM | < 0.01 µM | – | – | – | – | –
11 | C=CC(=O)N1CCO[C@H]2CN(C(=O)N(C)[C@H](C(=O)N[C@H]3Cc4nc(cs4)-c4ccc5c(c4)c(c(-c4cccnc4[C@H](C)OC)n5CC)CC(C)(C)COC(=O)[C@@H]4CCCN(N4)C3=O)C(C)C)C[C@@H]21 (atropisomer, axis not shown) [Example A544] | 1000 to 10000 nM | < 10 nM | < 10 nM | 100 to 1000 nM | 10 to 100 nM | 100 to 1000 nM | < 0.01 µM | – | – | – | – | –
12 | C=CC(=O)N1CCOC2(CCN(C(=O)N(C)[C@H](C(=O)N[C@H]3Cc4nsc(n4)-c4ccc5c(c4)c(c(-c4cccnc4[C@H](C)OC)n5CC)CC(C)(C)COC(=O)[C@@H]4CCCN(N4)C3=O)C(C)C)CC2)C1 (atropisomer, axis not shown) [Example A545] | 1000 to 10000 nM | 10 to 100 nM | 10 to 100 nM | 100 to 1000 nM | 10 to 100 nM | 100 to 1000 nM | 0.01 to 0.1 µM | – | – | – | – | –
13 | C=CC(=O)N1CC[C@@H]2[C@H]1CN2C(=O)N(C)[C@H](C(=O)N[C@H]1Cc2nc(cs2)-c2ccc3c(c2)c(c(-c2cccnc2[C@H](C)OC)n3CC)CC(C)(C)COC(=O)[C@@H]2CCCN(N2)C1=O)C(C)C (atropisomer, axis not shown) [Example A546] | 1000 to 10000 nM | 100 to 1000 nM | 100 to 1000 nM | 100 to 1000 nM | 100 to 1000 nM | 1000 to 10000 nM | < 0.01 µM | – | – | – | – | –
14 | CCn1c(-c2cccnc2[C@H](C)OC)c2c3cc(ccc31)-c1cccc(c1)C[C@H](NC(=O)[C@H](C(C)C)N1CC[C@@]3(CCN(C(=O)C#C[C@H]4COCCN4C)C3)C1=O)C(=O)N1CCC[C@H](N1)C(=O)OCC(C)(C)C2 (atropisomer, axis not shown) [Example A551] | 1000 to 10000 nM | < 10 nM | < 10 nM | 1000 to 10000 nM | 1000 to 10000 nM | 1000 to 10000 nM | – | – | – | – | – | < 0.01 µM
